Experimental findings from ChEMBL document CHEMBL1144980, “Lupane triterpenes and derivatives with antiviral activity” (Bioorg Med Chem Lett, 2003) are described below.

Test [1] concerns Influenza A virus. Description: Ratio of maximum nontoxic concentration (MNTC) against Influenza virus A to that of effective concentration (EC50). It counts as functional.
Test [2] deals with Human alphaherpesvirus 1. Put plainly: Antiviral activity against HSV-1 determined by inhibition of viral cytopathic effect (CPE) in rhabdomyosarcoma (RD) cell line. It counts as functional, organism-based, herpes simplex virus. The conditions noted are these: Human alphaherpesvirus 1, RD. A general note: Protection from cytopathic effect is a common read-out in antiviral testing.

Test [3] concerns Influenza A virus. Put plainly: Antiviral activity against influenza A virus determined in chicken embryo cells (CEC) by plaque reduction assay method. Format: functional, organism-based.
Test [4] deals with Human alphaherpesvirus 1. Put plainly: Ratio of maximum nontoxic concentration (MNTC) against HSV-1 to that of effective concentration (EC50). It counts as functional, herpes simplex virus.

In the case of `C=C(C)[C@@H]1CC[C@]2(C(=O)NCCCCCCCCCCCCCCCCCC)CC[C@@]3(C)C(CC[C@@H]4[C@@]5(C)CCC(=O)C(C)(C)C5CC[C@]43C)C12` (some centres not stated), the values for the Ratio in test [1] and in test [4] were 4.6 and 177, respectively. For the same compound, the EC50 in test [2] came out at 1.4 µM; in test [3], 55.5 µM.

For `C=C(C)[C@@H]1CC[C@]2(C(=O)NCCO)CC[C@@]3(C)C(CC[C@@H]4[C@@]5(C)CCC(=O)C(C)(C)C5CC[C@]43C)C12` (some centres not stated), the Ratio in test [1] and in test [4] was below 1 each time. Moreover, the figures for the EC50 in test [2] and in test [3] were above 377 µM and above 755 µM, respectively.

With `C=C(C)[C@@H]1CCC2(NC(=O)N[C@@H](C(=O)OC)C(C)C)CC[C@@]3(C)C(CC[C@@H]4[C@@]5(C)CCC(=O)C(C)(C)C5CC[C@]43C)C12` (some centres not stated), the values for the Ratio in test [1] and in test [4] were below 1 and 454, respectively. The EC50 in test [2] was 0.2 µM; in test [3], above 85.7 µM.

Consider `C=C(C)[C@@H]1CC[C@]2(C(=O)N[C@@H](CC(C)C)C(=O)OC)CC[C@@]3(C)C(CC[C@@H]4[C@@]5(C)CCC(=O)C(C)(C)C5CC[C@]43C)C12` (some centres not stated), for which the Ratio in test [1] is listed as 1.2; in test [4], below 1. Also, the concentration for a half-maximal effect (EC50) is 1370 µM in test [2] and 72.3 µM in test [3].

Turning to `C=C(C)[C@@H]1CC[C@]2(C(=O)N[C@@H](CCSC)C(=O)OC)CC[C@@]3(C)C(CC[C@@H]4[C@@]5(C)CCC(=O)C(C)(C)C5CC[C@]43C)C12` (some centres not stated), the Ratio in test [1] is given as 11.9; in test [4], below 1. Moreover, the figures for the EC50 in test [2] and in test [3] were above 666 µM and 14.2 µM, respectively.

`C=C(C)[C@@H]1CCC2(NC(=O)N[C@H](CCSC)C(=O)OC)CC[C@@]3(C)C(CC[C@@H]4[C@@]5(C)CC/C(=N\O)C(C)(C)C5CC[C@]43C)C12` (some centres not stated): the Ratio in test [1] amounted to 35.2; in test [4], 67.6. Further, the EC50 in test [2] was 0.6 µM; in test [3] it was 2.3 µM.

Take `C=C(C)[C@@H]1CC[C@]2(C(=O)NN)CC[C@@]3(C)C(CC[C@@H]4[C@@]5(C)CC/C(=N\O)C(C)(C)C5CC[C@]43C)C12` (some centres not stated): the Ratio is 25.2 in test [1] and below 1 in test [4]. Further, the EC50 in test [2] was above 51.6 µM; in test [3], 2 µM.

Take `C=C(C)[C@@H]1CC[C@]2(C(=O)O)CC[C@]3(C)[C@H](CC[C@@H]4[C@@]5(C)CC[C@H](O)C(C)(C)[C@@H]5CC[C@]43C)[C@@H]12` [BETULINIC ACID]: the Ratio in test [1] is on record as below 1; in test [4], 53.3. Further, the EC50 in test [2] is 8.2 µM; in test [3] it was above 219 µM.

As for `C=C(C)[C@@H]1CC[C@]2(C(=O)O)CC[C@]3(C)[C@H](CC[C@@H]4[C@@]5(C)CCC(=O)C(C)(C)[C@@H]5CC[C@]43C)[C@@H]12` [BETUNOLIC ACID], the Ratio is 9.6 in test [1] and 43.9 in test [4]. For the same compound, the results for the concentration giving a half-maximal response (EC50) in test [2] and in test [3] were 2.5 µM and 5.7 µM, respectively.

Take `C=C(C)[C@@H]1CC[C@]2(C(=O)N[C@@H](C)C(=O)OC)CC[C@@]3(C)C(CC[C@@H]4[C@@]5(C)CCC(=O)C(C)(C)C5CC[C@]43C)C12` (some centres not stated): the Ratio in test [1] was below 1; in test [4], 1.4. Further, the EC50 in test [2] was 663 µM; in test [3], above 234 µM.

In the case of `C=C(C)[C@@H]1CC[C@]2(N=C=O)CC[C@@]3(C)C(CC[C@@H]4[C@@]5(C)CCC(=O)C(C)(C)C5CC[C@]43C)C12` (some centres not stated), the Ratio in test [1] and in test [4] was below 1 each time. Further, the EC50 in test [2] and in test [3] was above 221 µM throughout.

Consider `C=C(C)[C@@H]1CCC2(NC(=O)N[C@H](CC(C)C)C(=O)OC)CC[C@@]3(C)C(CC[C@@H]4[C@@]5(C)CCC(=O)C(C)(C)C5CC[C@]43C)C12` (some centres not stated), for which the Ratio is on record as above 67 in test [1] and 11.5 in test [4]. Moreover, the EC50 in test [2] was determined as 14.6 µM; in test [3] it was 5 µM.

As to `C=C(C)[C@@H]1CC[C@]2(C(=O)N[C@H](C(=O)OC)C(C)C)CC[C@@]3(C)C(CC[C@@H]4[C@@]5(C)CCC(=O)C(C)(C)C5CC[C@]43C)C12` (some centres not stated), the Ratio is reported as 3.4 in test [1] and 2.5 in test [4]. In addition, the results for the 50% effective concentration (EC50) in test [2] and in test [3] were 142 µM and 13.3 µM, respectively.

Regarding `C=C(C)[C@@H]1CC[C@]2(C(N)=O)CC[C@@]3(C)C(CC[C@@H]4[C@@]5(C)CCC(=O)C(C)(C)C5CC[C@]43C)C12` (some centres not stated), the Ratio in test [1] is recorded as 1333.3; in test [4], below 1. The values for the EC50 in test [2] and in test [3] were 220 µM and 0.7 µM, respectively.

As for `C=C(C)[C@@H]1CCC2(NC(=O)N[C@H](CCSC)C(=O)OC)CC[C@@]3(C)C(CC[C@@H]4[C@@]5(C)CCC(=O)C(C)(C)C5CC[C@]43C)C12` (some centres not stated), the Ratio stood at 3 in test [1] and 298.5 in test [4]. The results for the EC50 in test [2] and in test [3] were 2.2 µM and 27.1 µM, respectively.

With `C=C(C)[C@@H]1CC[C@]2(C(=O)NN)CC[C@@]3(C)C(CC[C@@H]4[C@@]5(C)CCC(=O)C(C)(C)C5CC[C@]43C)C12` (some centres not stated), in test [2], the EC50 was 10 µM. For the same compound, in test [4], the Ratio is given as 21.3.

One may read the EC50 as the concentration giving half of the maximal effect. High values mean lower potency in that assay, low ones higher potency in that assay.
